Assay results published in patent US4999424A, “GAR transformylase inhibitor” (The Pennsylvania State University, priority 1988, dated 1991).

Target: T1, GAR TFase (HeLa O) (Homo sapiens, UniProt P22102)
T1 construct: GAR TFase activity is the C-terminal domain of trifunctional GART
T1 sequence (P22102 2-1010): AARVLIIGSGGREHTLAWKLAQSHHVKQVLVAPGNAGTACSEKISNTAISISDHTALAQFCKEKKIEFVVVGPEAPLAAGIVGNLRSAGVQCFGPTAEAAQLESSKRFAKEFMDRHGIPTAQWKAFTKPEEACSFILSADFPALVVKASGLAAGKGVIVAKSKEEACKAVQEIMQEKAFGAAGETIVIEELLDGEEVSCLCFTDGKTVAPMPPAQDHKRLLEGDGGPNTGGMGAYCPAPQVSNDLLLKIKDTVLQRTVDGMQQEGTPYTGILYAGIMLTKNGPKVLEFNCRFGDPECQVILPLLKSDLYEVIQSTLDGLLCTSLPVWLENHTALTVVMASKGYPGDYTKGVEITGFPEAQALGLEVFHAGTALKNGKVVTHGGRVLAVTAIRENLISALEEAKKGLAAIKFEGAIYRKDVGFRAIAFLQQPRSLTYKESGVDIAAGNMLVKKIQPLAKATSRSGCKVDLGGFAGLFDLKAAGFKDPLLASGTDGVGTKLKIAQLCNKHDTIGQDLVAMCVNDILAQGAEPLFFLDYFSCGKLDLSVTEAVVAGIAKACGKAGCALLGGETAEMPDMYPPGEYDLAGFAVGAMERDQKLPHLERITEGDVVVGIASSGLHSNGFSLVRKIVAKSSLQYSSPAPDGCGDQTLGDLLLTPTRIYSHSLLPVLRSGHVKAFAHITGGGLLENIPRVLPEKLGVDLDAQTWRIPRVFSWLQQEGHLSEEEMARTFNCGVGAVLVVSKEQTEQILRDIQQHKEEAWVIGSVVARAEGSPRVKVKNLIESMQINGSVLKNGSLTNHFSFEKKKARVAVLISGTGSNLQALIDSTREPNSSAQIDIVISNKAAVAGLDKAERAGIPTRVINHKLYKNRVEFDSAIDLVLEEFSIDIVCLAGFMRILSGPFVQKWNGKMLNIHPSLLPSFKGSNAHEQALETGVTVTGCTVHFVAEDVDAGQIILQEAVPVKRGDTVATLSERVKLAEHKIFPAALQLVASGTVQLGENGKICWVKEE
Assay: HeLa O GAR TFase inhibition
Format: biochemical
Conditions: for Mode of inhibition: HeLa O GAR TFase
Procedure: All assays were carried out by following the increase of 5,8-dideazafolate absorbence at 295 nm in buffered medium at 26° C. To initiate the reaction, enzyme (1 nM final concentration) was added to a mixture of saturating substrates and variable amounts of inhibitor. A characteristic family of curves was obtained, showing slow, tight-binding inhibition. See, Morrison, Trends Biochem. Sc., 7, 102 (1982) and Morrison, et al., Adv. Enzymology, Relat. Areas Mol. Biol., 57, 201-301 (1987).
The specificity of beta-TGDDF for GAR TFase from species other than E. coli was assayed in a general manner by measuring the activity of GAR TFase at a concentration of 1 nM from avian, HeLa, and L121? sources in the presence of 20 nM beta-TGDDF.
Table II illustrates the specificity of beta-TGDDF for GAR TFase in comparison with other reduced-folate utilizing enzymes. This test, was conducted using the same [I]/[E]ratios as stated previously.
E. coli GAR TFase was prepared and purified as described below. L1210 and HeLa GAR TFase were purified according to published procedures. AICAR TFase was prepared according to published procedures.

With `Nc1nc2ccc(CN(C(=O)CSCC(=O)N[C@@H]3O[C@H](COP(=O)(O)O)[C@@H](O)[C@H]3O)c3ccc(C(=O)N[C@@H](CCC(=O)O)C(=O)O)cc3)cc2c(=O)[nH]1` [beta-TGDDF, N^10-[5'-phosphoribosyl-1'-β-amino-carbonylmethyl-1-thioacetyl]-5,8-dideazafolate] the Extent of inhibition (20 nM beta-TGDDF, 1 nM enzyme) was “inhibited by roughly the same magnitude”, the Mode of inhibition was “inhibition of a slow, tight binding nature” and the Mode of inhibition (listed as Beta-TGDDF) was “slow, tight-binding inhibitor”.
